# Measured values as given in patent publication US20200339953A1, “HEMATOPOIETIC STEM AND PROGENITOR CELL THERAPY” (priority 2010, published 2020).
# Columns and labels:
# human CD34^+ cells = experiment: Microfluidic qPCR using the Fluidigm platform (signature genes of Table 3); type: cell-based; conditions: 37° C.
# Method: Real-time PCR transcript quantitation from 16,16-dimethyl PGE2 ex vivo treated CD34+ cell samples was performed using the BioMark Dynamic Array microfluidics system (Fluidigm Corporation, South San Francisco, Calif., USA). Total RNA was isolated from treated cells using Pico Pure RNA Isolation Kit (Molecular Devices, Sunnyvale, Calif., USA). Complimentary DNA (cDNA) was reverse transcribed from 50 ng of isolated total RNA using the High-Capacity cDNA Reverse Transcription Kit (Life Technologies Corporation, Carlsbad, Calif., USA).
# cDNA was pre-amplified for specific target genes (96) using a 200 nM mixture of 96 gene specific primer pairs (see Table 1), including 6 reference control genes using the TaqMan PreAmp Master Mix Kit (Life Technologies) protocol. Specific target amplification (STA) from cDNA was performed using 14 cycles of amplification with the standard cycling conditions using the manufacturer's protocol. EvaGreen dye (Biotium, Inc. Hayward, Calif., USA) was added according to Fluidigm's EvaGreen protocol to detect amplified products. For samples, the reaction mix contained 3.0 μL Gene Expression Master Mix (Life Tech.), 0.3 μL Sample Loading Buffer (Fluidigm), 0.3 μL 20× EvaGreen dye (Biotium, Inc.), 1.5 μL diluted (1:5 sterile nH2O) STA cDNA, and 0.9 μL sterile diH2O for loading into the sample inlets of the 96.96 Dynamic Array (Fluidigm).
# Samples were run in replicates, from 5 to 9 wells. For primer pairs, the reaction mix contained 2.5 μL Gene Specific Primer pairs (20 μM) and 2.5 μL Assay Loading Buffer (Fluidigm) for loading into the assay inlets on the 96.96 Dynamic Array (Fluidigm). 96.96 Dynamic arrays were loaded using a NanoFlex IFC Controller HX (Fluidigm) and real-time reactions were performed using a BioMark Real-Time PCR System (Fluidigm).
# Results were analyzed using BioMark Real-Time PCR Analysis software. Average Cts were calculated from the sample replicates and delta-delta Cts (ΔΔCt) were calculated using the mean of 6 reference genes (ACTB, GAPDH, HPRT1, QARS, ARPC2 and LRIG2) against a vehicle only sample. Cts above 28 or amplified products with inappropriate melting curve properties were excluded from the calculations.
# A microfluidic qPCR platform was also used to measure expression changes of a 16,16-dimethyl PGE2 gene expression signature of the genes listed in Table 3 in human CD34^+ cells at different incubation times.
# Further, gene expression signatures were measured on cells that received short pulse treatments with 16,16-dimethyl PGE2 followed by a recovery period in the absence of the drug. Human CD34^+ cells were incubated for different times in the presence of 16,16-dimethyl PGE2 followed by a wash and recovery period in media designed to reflect the in vivo setting. The experimental design matched the ex vivo treatment paradigm where cells are treated, washed to remove the drug and then administered to the patient. CD34^+ cells were incubated with 16,16-dimethyl PGE2 at 37° C. for 5, 15, 30, 60, or 120 minutes and the gene expression signatures were analyzed. For incubation periods less than 120 minutes, the cells were washed in media to remove the 16,16-dimethyl PGE2 and then the cells were incubated for the remaining period in media to allow time for gene expression to take place.
# [1] = tested on: human CD34^+ cord blood (hCD34^+ CB) cells; experiment: In vitro chemotaxis assay towards SDF1α; type: cell-based; conditions: 10 μM, 4 hours, 37° C.; 50 ng/ml SDF1α vs DMSO or 0 ng/ml SDF1α
# Method: Chemotaxis assays were performed using 96-well chemotaxis chambers, […] pore size polycarbonate membrane (Corning Inc., Corning, N.Y.) in accordance with manufacturer's instructions. Briefly, human CD34^+ cord blood (hCD34^+ CB) cells were obtained from All Cells and were thawed according to manufacturer's instruction. The cells were then treated for 4 hours at 37° C. with 16,16-dimethyl PGE2 or DMSO control at a concentration of 10 μM in StemSpan media (Stem Cell Technology, Vancouver, Canada). The cells were then washed by centrifugation (300 g for 10 minutes) and resuspended in transwell assay buffer (Phenol Red Free RPMI media (Mediatech), 0.5% lipid free BSA (Sigma-Aldrich) at a concentration of 40,000-60,000 cells/75 ul. Seventy-five μl of cell suspension was added to the upper chamber of the plate, while 235 μl of transwell assay media containing 0 or 50 ng/ml SDF1α (R&D system, Minneapolis, Minn.) was added to the bottom well. Total cell number in the lower well was obtained by flow cytometry, using 7AAD (BD Biosciences) to exclude dead cells, after 4 hours of incubation at 37° C., 5% CO2. […] Percent migration was calculated by dividing the number of the cells in the lower well by the total cell input multiplied by 100. Samples were analyzed in triplicate, the data was then averaged for statistical analysis.
# [2] = tested on: Whole cord blood cells or CD34^+ cells; experiment: Cell viability assay (7-AAD staining); type: cell-based, human
# Method: Whole cord blood cells or CD34^+ cells obtained from Stem Cell Technologies (Vancouver, Canada) were aliquoted equally in Eppendorf tubes and treated ex vivo at a range of 16,16-dimethyl PGE2 concentrations (10 μM to 100 μM) or DMSO control; temperatures (4° C., 22° C., or 37° C.) for 60 or 120 minutes in LMD/5% HSA media. After treatment, an aliquot of the incubated cells were assayed using 7-Amino-Actinomycin D (7-AAD) staining as an indicator of cell death. One million whole cord blood were stained with 5 μL of 7AAD staining solution (BD Bioscience, San Jose, Calif.), or 200,000 CD34^+ cord blood cells were stained with 1 μL 7-AAD solution. Cells were analyzed on a Guava EasyCyte 8HT System (Millipore) and with the FlowJo software package (Tree Star Inc., Ashland, Oreg.). A separate aliquot of the same cells were also taken for assessment of proliferation potential using CFU-C assays (discussed below in Example 4).
structure (smiles),measurement,setting,value
"CCCCC(C)(C)[C@H](O)/C=C/[C@H]1[C@H](O)CC(=O)[C@@H]1C/C=C\CCCC(=O)O [16,16-dimethyl PGE2]",pulse incubation giving maximal gene expression changes,human CD34^+ cells; 10 μM,about 2 hours
same,constant exposure after which suitable gene expression signatures were detectable,"human CD34^+ cells; 10 μM, FIG. 14A",at least 60 minutes
same,constant exposure giving maximal gene expression response,"human CD34^+ cells; 10 μM, FIG. 14A-B",after at least about two hours
same,pulse incubation after which recognizable gene expression signatures were observed,"human CD34^+ cells; 10 μM, recovery to 120 minutes total",about 30 minutes
same,gene expression response to short pulse treatments (5-15 minutes),"human CD34^+ cells; 10 μM, recovery to 120 minutes total, FIGS. 15A-15B",not sufficient
same,concentration at which the gene expression signature was maximal,"human CD34^+ cells; 2 hours, FIGS. 16A-16B",10 µM
same,number of migrating CD34+ cells,[1],significantly increased
same,cell viability (FIG. 10),"[2]; CD34+ cells, 10 μM, 120 minutes, 37° C. vs vehicle or 4° C.",does not decrease cell viability
same,cell viability (7-AAD),"[2]; whole cord blood cells or CD34+ cells, high temperatures, relatively long incubation periods vs other conditions",did not decrease cell viability
